Active and inactive are the calls of the source. The rule behind the calls is not given here.
Test system: M. tuberculosis H37Rv growth inhibition with meropenem
Assay: dose response, H37Rv, with and without meropenem (AID 434987);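 note: growth over 7 days at 37 °C before Alamar Blue read on day 9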
[1] = M. tuberculosis H37Rv growth inhibition, measured here: IC50 without meropenem
[2] = M. tuberculosis H37Rv growth inhibition, measured here: IC90 without meropenem
[3] = measured here: IC90 with meropenem

| Compound | IC50 | IC50 [1] [µM] | IC90 [2] [µM] | IC90 [3] [µM] |
| --- | --- | --- | --- | --- |
| COc1cc(-c2nc(S(=O)(=O)c3ccc(C)cc3)c(N3CCOCC3)o2)cc(OC)c1OC | > 100 µM (inactive) | > 100 | > 100 | > 100 |
| CCCCNC(=O)/C(=C/c1ccccc1)NC(C)=O | > 100 µM (inactive) | > 100 | > 100 | > 100 |
| CCOC(=O)c1c(C)[nH]c(N=Nc2ccccc2Cl)c1C | 32.4 µM (inactive) | 63.1 | > 100 | > 100 |
| CCC(CC)c1nnc(NC(=O)c2cc(-c3ccccc3)nc3ccccc23)s1 | > 100 µM (inactive) | > 100 | > 100 | > 100 |
| CCOC(=O)c1ccc(-c2ccc(C=O)o2)cc1 | 29.1 µM (inactive) | 44.6 | > 100 | > 100 |
| O=C(N/N=C/c1ccc(-c2cccc(C(F)(F)F)c2)o1)c1ccccc1O | 32.8 µM | > 100 | > 100 | > 100 |
| Cc1ccc(OCC(=O)Nc2ccc3c4c(cccc24)CC3)c(C)c1 | 1.71 µM | > 100 | > 100 | > 100 |
| COc1cc(CNc2ccc(NC(C)=O)cc2)ccc1OCc1ccccc1C | > 100 µM (inactive) | > 100 | > 100 | > 100 |
| Clc1ccc(Cn2cc(/C=N/n3cnnc3)c3ccccc32)cc1 | 46.9 µM (inactive) | 49 | > 50 | > 100 |
| Cc1ncc(CCl)c2c1OC(C)(C)OC2 | 42.5 µM (inactive) | 89.2 | > 100 | > 100 |
| C/C(=N\NC(=O)c1ccccc1O)c1ccc(Br)s1 | > 100 µM (inactive) | > 100 | > 100 | > 100 |
| O=C(Nc1ccc(C(F)(F)F)cc1)c1cc(-c2cccnc2)nc2ccc(Br)cc12 | > 100 µM (inactive) | > 100 | > 100 | > 100 |
| Cc1cc(C)n(-c2nc(-c3ccc(Cl)c(Cl)c3)cs2)n1 | 14.5 µM | > 100 | > 100 | > 100 |
| CN(c1ccc(OCC(=O)Nc2ccc3[nH]c(=O)[nH]c3c2)cc1)S(=O)(=O)c1ccc(Cl)cc1 | > 100 µM (inactive) | > 100 | > 100 | > 100 |
| Cc1nn(Cc2ccc(Cl)cc2)c(C)c1NC(=O)CSc1nc2c(c(C(F)(F)F)n1)CCc1ccccc1-2 | > 100 µM (inactive) | > 100 | > 100 | > 100 |
| Cc1ccc(SCc2c(C#N)c3ccccc3n2C)cc1 | > 100 µM (inactive) | > 100 | > 100 | > 100 |
| O=C(N/N=C/c1cccc(NC(=O)c2ccc(Cl)cc2)c1)c1cccc(O)c1 | > 100 µM (inactive) | > 100 | > 100 | > 100 |
| COc1ccc(-c2csc(NC(=O)c3c(C)noc3C)n2)cc1 | 25.9 µM | > 100 | > 100 | > 100 |
| CCOC(=O)c1ccc(N2CN(CCc3ccccc3)CNC2=S)cc1 | 26.9 µM | 91.5 | > 100 | > 100 |
| CCOC(=O)N1CCC(N2CCN(S(=O)(=O)c3ccc(Cl)cc3)CC2)CC1 | > 100 µM (inactive) | > 100 | > 100 | > 100 |

| Compound | IC50 | IC50 [1] [µM] | IC90 [2] [µM] | IC90 [3] [µM] |
| --- | --- | --- | --- | --- |
| CCOC(=O)CNC(=O)c1cccnc1Oc1ccc(Cl)cc1 | 11.4 µM | 36.7 | > 100 | > 100 |
| COC(=O)/C(=C\Nc1ccc(Cl)cc1Cl)NC(=O)c1ccc(Cl)cc1Cl | > 100 µM (inactive) | > 100 | > 100 | > 100 |
| CCc1ccc(NC(=S)Nc2ccc3[nH]c(=O)[nH]c3c2)cc1 | > 100 µM (inactive) | > 100 | > 100 | > 100 |
| Cc1cc2ccccc2n1CCNC(=O)COc1ccccc1 | 30.1 µM (inactive) | 44.7 | 60.3 | 42.8 |
| Cc1ccccc1C(=O)Oc1ccccc1N1C(=O)C2CC=CCC2C1=O (configuration not stated) | > 100 µM (inactive) | > 100 | > 100 | > 100 |
| CC1CC(C)(C)n2c(O)c(N=NC(N)=S)c3cccc1c32 (configuration not stated) | > 100 µM (inactive) | > 100 | > 100 | > 100 |
| CC1=NN(c2ccccc2)C(=O)/C1=C/c1c(O)[nH]c(=S)[nH]c1=O | > 100 µM (inactive) | > 100 | > 100 | > 100 |
| COC(=O)c1sc(-c2ccc(Cl)cc2)cc1NC(=O)COCC(=O)O | 15.2 µM | 39.5 | > 100 | 44.8 |
| CCOC(=O)c1cc(-c2ccc(C)cc2)n(CCC(=O)N2CCN(c3ccccn3)CC2)c1C | 69.5 µM (inactive) | 89.4 | > 100 | > 100 |
| COc1cc(OC)c(OC)cc1/C=C1\CCC(C2CCCC2)C1=O (configuration not stated) | 55.9 µM (inactive) | 77.5 | > 100 | > 100 |
| Cc1ccc(-n2c(SCC(=O)NCc3ccco3)nc3sc4c(c3c2=O)CC(C)(C)SC4)cc1 | > 100 µM (inactive) | > 100 | > 100 | > 100 |
| COc1ccccc1NC(=O)COc1ccc(CO)cc1Cl | > 100 µM (inactive) | > 100 | > 100 | > 100 |
| CCCOc1ccc(C(=O)N/N=C/c2ccc(-c3ccc(S(=O)(=O)Nc4ncccn4)cc3)o2)cc1 | 22.4 µM (inactive) | 39.8 | > 100 | 26.1 |
| C=CCSc1nnc(-c2cc3c(-c4ccccc4)nn(C)c3s2)n1C | 26 µM (inactive) | 52.4 | 92 | > 100 |
| O=C(Nc1cccc2ccccc12)N1CCCN(c2c(Cl)cncc2Cl)CC1 | > 100 µM (inactive) | > 100 | > 100 | > 100 |
| COc1ccc2c(c1)c(C(C)=O)c(C)n2-c1ccccc1 | 0.336 µM | > 100 | > 100 | 6.92 |
| CC(C)OCc1c(C(=O)Nc2nccs2)oc2ccccc12 | 97.9 µM (inactive) | > 100 | > 100 | > 100 |
| O=C(N/N=C/c1ccc([N+](=O)[O-])o1)c1ccccc1-n1cccc1 | 4.74 µM | 13.9 | 35 | 29.4 |
| Cc1nn(-c2ccccc2)c(N2CCCC2)c1/C=C1\N=C(c2ccc(F)cc2)OC1=O | 10.7 µM (inactive) | 23.4 | 26.8 | 22.9 |
| S=C(Nc1ccccc1)Nc1ccc(Cl)cn1 | 4.68 µM | 90.6 | > 100 | > 100 |

| Compound | IC50 | IC50 [1] [µM] | IC90 [2] [µM] | IC90 [3] [µM] |
| --- | --- | --- | --- | --- |
| CC1(C)Cc2c(C#N)c(SCc3ccccc3)nc(N3CCOCC3)c2CO1 | > 100 µM (inactive) | > 100 | > 100 | > 100 |
| CCn1nnnc1SCC(=O)c1ccc(C)cc1C | > 100 µM (inactive) | > 100 | > 100 | > 100 |
| COc1ccc(OC)c(NC(=O)c2ccccc2SC)c1 | 19.8 µM | 83 | > 100 | > 100 |
| COc1cc(NC(=O)C2CCCCC2)c(OC)cc1NC(=O)CN1CCCCC1 | 9.28 µM | 47.4 | > 100 | > 100 |
| O=C(N/N=C/c1ccc2c(c1)OCO2)c1sc2cc(Cl)ccc2c1Cl | > 100 µM (inactive) | > 100 | > 100 | > 100 |
| CC(=O)NC(=S)Nc1ccc(NC(=O)c2cccs2)cc1 | 48.7 µM (inactive) | > 100 | > 100 | > 100 |
| CC(C)CN(C(=O)CN1CCN(S(=O)(=O)c2ccccc2)CC1)c1c(N)n(CC(C)C)c(=O)[nH]c1=O | > 100 µM (inactive) | > 100 | > 100 | > 100 |
| O=C1CC(Nc2ccc(N3CCOCC3)cc2)C(=O)N1C1CCCCC1 (configuration not stated) | > 100 µM (inactive) | > 100 | > 100 | > 100 |
| Cc1cc(C=C2C(=O)NC(=S)NC2=O)c(C)n1-c1ccc2c(c1)OCO2 | 12.7 µM (inactive) | 24.3 | 25.3 | 14.5 |
| CCn1cc(C(=O)O)c(=O)c2cc(F)c(N/N=C/c3ccccc3)cc21 | 22.8 µM (inactive) | 36.5 | > 100 | > 100 |
| CCSc1nc2ccccc2c(=O)n1CCc1ccc(OC)c(OC)c1 | > 100 µM (inactive) | > 100 | > 100 | > 100 |
| CCOC(=O)CNC(=O)CSc1ncnc2c1cnn2Cc1ccccc1 | > 100 µM (inactive) | > 100 | > 100 | > 100 |
| CCC(CC)Nc1ccc(C(CC(N)=O)NC(=O)c2ccccc2)cc1[N+](=O)[O-] (configuration not stated) | > 100 µM (inactive) | > 100 | > 100 | > 100 |
| S=c1[nH]cnc2scc(-c3ccc(Br)cc3)c12 | 28.8 µM | 98.8 | > 100 | > 100 |
| O=C(N/N=C/c1cccc(Br)c1)c1ccc(Cn2cc(Br)cn2)o1 | 99.8 µM (inactive) | > 100 | > 100 | > 100 |
| CC(=O)Nc1ccc(S(=O)(=O)Nc2cccc3cccnc23)cc1 | 13.2 µM (inactive) | 21.5 | > 100 | 43.3 |
| O=C(Nc1nc(-c2ccc(F)c(F)c2)cs1)c1cnccn1 | 14.6 µM | > 100 | > 100 | > 100 |
| CCOC(=O)C1=C(C)N=c2s/c(=C\c3ccncc3)c(=O)n2C1c1ccc2c(c1)OCO2 (configuration not stated) | 69.7 µM (inactive) | 95.7 | > 100 | > 100 |
